Molecular target: T1, GRM4 (Homo sapiens, UniProt Q14833)
T1 construct: purchased Promega (in-house HiBiT-GPCR construct library, NanoBRET)
Test: NanoBRET screen HiBiT-GRM4 in HEK293
Assay type: binding
Description: Each tracer candidate was screened across the entire library of HiBiT-GPCR constructs using NanoBRET as the detection modality. As depicted in Figure 4A, the specificity of interactions was evaluated through decrease in BRET due to competitive displacement of a bound tracer by excess parental compound. Each tracer was analyzed for binding to each HiBiT-GPCR fusion in the absence and in the presence of competing parental compound. Briefly, HEK293 cells were transfected with HiBiT-GPCR constructs diluted into promoterless DNA to reduce expression and maximize translocation to the cell surface. Each tracer candidate was then screened at concentrations of 1 μM and 0.1 μM across cells expressing these fusions. Cells were treated for 1.5 h with tracer either alone or in the presence of 20 μM competing parental compound (i.e., control). BRET was measured upon addition of purified LgBiT and subsequent complementation with HiBiT genetically fused to a GPCR. The specificity of interactions was assessed through a decrease in BRET signal due to competitive displacement of the bound tracer. To further gauge the robustness of these interactions, the fold response over the control (i.e., BRETtracer/BRETcontrol) was calculated. We chose a 1.5-fold response, which translates to ≥7-fold signal over noise as the minimal threshold required to score an interaction as positive. […]. Below we highlight the screening results obtained for our exemplary fluorescent tracers based on Clozapine, Amitriptyline and AZD1283.
HiBiT-GPCR DNA constructs were diluted in 10 mM Tris pH 8 to a final concentration of 0.01 μg/μL, arrayed in 96-well plates and stored at −20 °C. For transfection, HEK293 cells were suspended in Opti-MEM (without phenol red) supplemented with 2% fetal bovine serum (Seradigm) and 100 units/mL penicillin–streptomycin (Gibco) at a final concentration of 220,000 cells/mL and dispensed into white 96-well plates at 90 μL/well. Subsequent transfections and screens were carried using an Agilent Bravo Automated Liquid Handling Platform. First, the 96-well HiBiT DNA arrays were diluted 25-fold in Opti-MEM (without serum or phenol red) to a final concentration of 0.0004 μg/μL and 20 μL of the diluted DNAs were transferred into new 96-well plates. Next, promoterless carrier DNA (1 μg/μL) was diluted 25-fold (0.04 μg/μL) and then dispensed into the diluted arrays at 20 μL/well. Following brief mixing, Viafect transfection reagent (Promega) diluted 16-fold into Opti-MEM was dispensed into the plates at 40 μL/well. After mixing by pipetting, plates were incubated for 10 min on the pipetting station deck. The DNA-transfection reagent complexes were then added to plates containing cells. To facilitate the screen, 10 μL of DNA-transfection reagent complexes were added in duplicates to the top 4 and bottom 4 rows, resulting in two identical 48-well arrays per plate. Plates with transfected cells were incubated for 18–20 h at 37 °C/5% CO2. A screen of each tracer across the entire library using two different concentrations requires duplicate plates of transfected cells. Depending on the number of tracers being screened, transfections can be scaled up using the same ratios. The next day, for each tracer, four 20× screening solutions in tracer dilution buffer (Promega) were prepared: two duplicates at final concentration of 20 μM and two duplicates at a final concentration of 2 μM. A competing unmodified compound was added to one of each duplicate at a final concentration of 400 μM. The four resulting solutions were diluted 4-fold in Opti-MEM without serum or phenol red to generate 5× solutions (5 µM and 0.5 µM tracer +/− 100 μM competing compound). To screen the library, a BioTek MultiFlo FX liquid dispenser was used to dispense 22.5 µL of tracer solution to the top 4 rows and 22.5 µL tracer + competing compound solution to the 4 bottom rows. Plates were briefly mixed on an orbital shaker and incubated for 1.5 h at room temperature. […]

T1 sequence (Q14833 33-912): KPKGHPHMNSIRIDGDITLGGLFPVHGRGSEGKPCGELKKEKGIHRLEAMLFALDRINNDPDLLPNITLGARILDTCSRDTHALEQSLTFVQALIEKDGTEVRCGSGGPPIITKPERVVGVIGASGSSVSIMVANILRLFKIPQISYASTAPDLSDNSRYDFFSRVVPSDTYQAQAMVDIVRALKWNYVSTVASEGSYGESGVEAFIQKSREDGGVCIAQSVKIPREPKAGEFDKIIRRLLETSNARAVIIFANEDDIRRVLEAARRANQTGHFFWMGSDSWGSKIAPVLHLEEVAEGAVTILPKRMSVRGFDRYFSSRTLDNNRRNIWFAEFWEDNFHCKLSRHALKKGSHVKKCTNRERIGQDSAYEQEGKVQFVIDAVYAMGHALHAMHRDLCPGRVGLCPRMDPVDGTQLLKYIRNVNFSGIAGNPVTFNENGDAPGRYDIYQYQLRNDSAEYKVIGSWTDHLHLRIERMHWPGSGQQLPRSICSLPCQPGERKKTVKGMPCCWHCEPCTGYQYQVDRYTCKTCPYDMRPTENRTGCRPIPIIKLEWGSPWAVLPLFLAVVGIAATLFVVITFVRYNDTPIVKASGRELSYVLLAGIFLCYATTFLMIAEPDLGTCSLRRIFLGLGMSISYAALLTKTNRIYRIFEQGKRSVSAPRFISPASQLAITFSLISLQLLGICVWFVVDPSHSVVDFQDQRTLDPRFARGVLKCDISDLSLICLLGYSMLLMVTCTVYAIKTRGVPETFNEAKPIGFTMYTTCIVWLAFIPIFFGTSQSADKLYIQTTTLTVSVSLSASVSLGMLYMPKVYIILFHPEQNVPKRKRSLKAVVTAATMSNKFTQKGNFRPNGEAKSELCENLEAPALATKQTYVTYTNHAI

SMILES	NanoBRET Fold Response (GRM4, tracer 0.1μM)	NanoBRET Fold Response (GRM4, tracer 1μM)	also measured
CCOC(=O)c1cc(C#N)c(N2CCC(C(=O)NS(=O)(=O)Cc3ccccc3/C=C/C(=O)NCCNC(=O)CCc3ccc4n3[B-](F)(F)[N+]3=C(c5ccc[nH]5)C=CC3=C4)CC2)nc1C [AZD1283-1-NB590]			NanoBRET Fold Response (GRM4, 0.1μM): 1.06; NanoBRET Fold Response (GRM4, 1μM): 1.07
N#CN=C(NCCCOc1cccc(CN2CCCCC2)c1)NCCNC(=O)CCOCCOCCOCCOCCNC(=O)CCc1ccc2n1[B-](F)(F)[N+]1=C(c3ccc[nH]3)C=CC1=C2 [Aminopotentidine-2-NB590]	1.02	1.01	
CN(C)CCC=C1c2ccccc2CCc2ccc(C(=O)NCCNC(=O)CCOCCOCCOCCOCCNC(=O)CCc3ccc4n3[B-](F)(F)[N+]3=C(c5ccc[nH]5)C=CC3=C4)cc21 [Amitriptyline-b-2-NB590]	0.96	0.95	
COc1ccc2c(n1)c(CCNC(C)=O)cn2CCNC(=O)CCc1ccc2n1[B-](F)(F)[N+]1=C(c3ccc[nH]3)C=CC1=C2 [Azamelatonin-1-NB590]			NanoBRET Fold Response (0.1μM tracer): 1.09; NanoBRET Fold Response (1μM tracer): 0.78
COc1ccc2[nH]c(-c3ccc(CNC(=O)CCOCCOCCOCCOCCNC(=O)CCc4ccc5n4[B-](F)(F)[N+]4=C(c6ccc[nH]6)C=CC4=C5)cc3)c(CCNC(C)=O)c2n1 [AzomelatoninICO9-2-NB590]			NanoBRET Fold Response (0.1μM tracer): 0.97; NanoBRET Fold Response (1μM tracer): 0.85
O=C(CCOCCOCCOCCOCCNC(=O)CCc1ccc2n1[B-](F)(F)[N+]1=C(c3ccc[nH]3)C=CC1=C2)NCCCN1CCN(C2=Nc3cc(Cl)ccc3Nc3ccccc32)CC1 [Clozapine-a-2-NB590]			NanoBRET Fold Response (GRM4, 0.1μM tracer): 1.02; NanoBRET Fold Response (GRM4, 1μM tracer): 0.99
CN1CCN(C2=Nc3cc(Cl)ccc3Nc3ccc(CNC(=O)CCOCCOCCOCCOCCNC(=O)CCc4ccc5n4[B-](F)(F)[N+]4=C(c6ccc[nH]6)C=CC4=C5)cc32)CC1 [Clozapine-b-2-NB590]			NanoBRET Fold Response (GRM4, 0.1μM tracer): 1.05; NanoBRET Fold Response (GRM4, 1μM tracer): 1.03
CN1CCN(C2=Nc3cc(Cl)ccc3N(CC(=O)NCCOCCOCCOCCOCCNC(=O)CCc3ccc4n3[B-](F)(F)[N+]3=C(c5ccc[nH]5)C=CC3=C4)c3ccccc32)CC1 [Clozapine-c-2-NB590]			NanoBRET Fold Response (GRM4, 0.1μM tracer): 0.94; NanoBRET Fold Response (GRM4, 1μM tracer): 1.14
O=C(CCOCCOCCOCCOCCNC(=O)CCc1ccc2n1[B-](F)(F)[N+]1=C(c3ccc[nH]3)C=CC1=C2)NCCCN1CCN(C2=Nc3ccccc3Oc3ccc(Cl)cc32)CC1 [Loxapine-a-2-NB590]	1.04	0.99	
COc1ccccc1N1CCN(CCCCN2C(=O)c3ccc(CNC(=O)CCOCCOCCOCCOCCNC(=O)CCc4ccc5n4[B-](F)(F)[N+]4=C(c6ccc[nH]6)C=CC4=C5)cc3C2=O)CC1 [NAN-190-2-NB590]	0.98	0.97	
COc1ccccc1N1CCN(CCCCN2C(=O)c3ccc(CNC(=O)CCOCCNC(=O)c4ccc(CNC(=O)CCc5ccc6n5[B-](F)(F)[N+]5=C(c7ccc[nH]7)C=CC5=C6)cc4)cc3C2=O)CC1 [NAN-190-3-NB590]	1.14	1.33	
O=C(CCc1ccc2n1[B-](F)(F)[N+]1=C(c3ccc[nH]3)C=CC1=C2)NCc1ccc(C(=O)NCCOCCC(=O)N[C@@H]2CC[C@@]3(O)[C@H]4Cc5ccc(O)c6c5[C@@]3(CCN4CC3CC3)[C@H]2O6)cc1 [Naltrexone-3-NB590]	0.75	1.05	
Cc1cc2c(s1)Nc1ccccc1N=C2N1CCN(CCCNC(=O)CCOCCOCCOCCOCCNC(=O)CCc2ccc3n2[B-](F)(F)[N+]2=C(c4ccc[nH]4)C=CC2=C3)CC1 [Olanzapine-a-2-NB590]	0.99	0.93	
O=C(CCc1ccc2n1[B-](F)(F)[N+]1=C(c3ccc[nH]3)C=CC1=C2)NCc1ccc(C(=O)NCCOCCOCCNCC(O)COc2cccc3ccccc23)cc1 (centres unmarked) [Propranolol-3-NB590]			NanoBRET Fold Response (GRM4, 0.1μM): 1.11; NanoBRET Fold Response (GRM4, 1μM): 1.04
O=C(CCc1ccc2n1[B-](F)(F)[N+]1=C(c3ccc[nH]3)C=CC1=C2)NCCOCCOCCNC(=O)OCCOCCN1CCN(C2=Nc3ccccc3Sc3ccccc32)CC1 [Quetiapine-a-2-NB590]	0.99	0.92	
Cc1nc2n(c(=O)c1CCN1CCC(c3noc4cc(F)ccc34)CC1)CCCC2OC(=O)NCCOCCOCCOCCOCCNC(=O)CCc1ccc2n1[B-](F)(F)[N+]1=C(c3ccc[nH]3)C=CC1=C2 (centres unmarked) [Risperidone-2-NB590]	0.98	1.05	
CC(C)N(CC[C@H](c1ccccc1)c1cc(CCNC(=O)CCOCCOCCOCCOCCNC(=O)CCc2ccc3n2[B-](F)(F)[N+]2=C(c4ccc[nH]4)C=CC2=C3)ccc1O)C(C)C [Tolterodine-2-NB590]	0.97	1.14	
CC(C)N(CC[C@H](c1ccccc1)c1cc(CCNC(=O)c2ccc(CNC(=O)CCc3ccc4n3[B-](F)(F)[N+]3=C(c5ccc[nH]5)C=CC3=C4)cc2)ccc1O)C(C)C [Tolterodine-BZ-NB590]	1.02	0.99	
CCCn1c(=O)c2[nH]c(-c3ccc(OCC(=O)NCCNC(=O)CCOCCNC(=O)c4ccc(CNC(=O)CCc5ccc6n5[B-](F)(F)[N+]5=C(c7ccc[nH]7)C=CC5=C6)cc4)cc3)nc2n(CCC)c1=O [XAC-3-NB590]	1.03	1.07	
